Results: article PMC10177380 (Cancers, 2023)
“And” between values parts separate entries of the source, which are not always exact repeats. Identical values can stand only once.

Legend:
MCF7 breast = test: MTT growth inhibition, 72 h, MCF7; assay type: cell-based; details: MCF7, MTT, 72 h
A431 skin = test: MTT growth inhibition, 72 h, A431; assay type: cell-based
multiple cell lines = test: MTT growth inhibition, over all cell lines tested; assay type: cell-based; details: mean over all cell lines tested; read-out: Mean GI50 Values
[1] = test system: non-tumour derived MCF10A breast line; test: MTT growth inhibition, 72 h, MCF10A; assay type: cell-based
A2780 ovarian = test: MTT growth inhibition, 72 h, A2780; assay type: cell-based
MCF10A / Du145 = test: Selectivity cytotoxicity index (GI50 in MCF10A/GI50 in Du145); details: GI50 in MCF10A/GI50 in Du145
HT29 colon cells = test: ROS production, DCFDA/H2DCFDA cellular ROS assay; assay type: cell-based, human; details: treatment at GI50 concentration (TBHP positive control 20 μM)
Procedure: To determine the presence of ROS in treated cells, a DCFDA/H2DCFDA-cellular ROS Assay Kit (Abcam, Cambridge, MA, USA) was utilised, as previously reported. The ROS potential of platinum(II) precursors and platinum(IV) scaffolds, which were determined using the same method, were also presented in this study for comparison.
Additionally, the ROS potential of the platinum(II) precursors and platinum(IV) scaffolds was determined previously and was presented here to allow for comparison (Table 10 and Figure 13). […] Treatment with the complexes and ligands was completed at each specific GI50 concentration. […]
dimethylthiazol-2-yl]-2,5-diphenyltetrazolium bromide) assay and absorbance was read at 540 nm. An eight-point dose response curve was produced from which the GI50 value was calculated, representing the drug concentration at which cell growth was inhibited by 50% based on the difference between the optical density values on day 0 and those at the end of drug exposure.
4. Reactive Oxygen Species (ROS) Potential
A total of 25,000 cells/mL of HT29 cells in DMEM were seeded in 96-well plates. Cells were washed with 1X kit buffer, and then stained with 25 μM 2’,7’-dichlorofluorescein diacetate (DCFH-DA) and incubated for 45 min. DCFH-DA was then removed, and cells were then re-washed with 1X kit buffer, after which phenol red free media was added.
Cells were then treated with a GI50 drug concentration for each complex. The plates were directly scanned to measure fluorescence (relative fluorescence units (RFU)) at different time points using the Glo-Max®-Multimode microplate reader (Promega Corporation, Alexandra, VIC, Australia) at an excitation/emission of 485/535 nm. […]

[2] = test system: ADDP ovarian variant (cisplatin-resistant A2780 clone); test: MTT growth inhibition, 72 h, ADDP; assay type: cell-based; details: for GI50: ADDP, MTT, 72 h
HT29 colon = test: MTT growth inhibition, 72 h, HT29; assay type: cell-based, human
[3] = Reduction with ascorbic acid (AsA) in PBS followed by 1H-NMR and 1D-195Pt-NMR; assay type: physicochemical; details: estimated 100% reduction, PBS in D2O, 37 °C
Procedure: The reduction behaviour of 1–6 was probed via ^1H-NMR and 1D-^195Pt-NMR spectroscopy, as previously described (see Supplementary Materials).
The reduction behaviour of 1–6 was monitored by ^1H-NMR and 1D-^195Pt-NMR spectroscopy using previously established methods. Prior to the reduction measurements, each metal complex was dissolved with PBS in D2O only.
Based on the initial 1D-^195Pt-NMR spectra acquired (Figures S62 and S63), the structural integrity of the complexes was retained, and no signs of reduction were observed, thus also confirming that the PBS had no effect on the complexes. Subsequently, AsA was added in each solution containing the metal complex, PBS and D2O. Then, sequential ^1H-NMR experiments were undertaken for 1 h, followed by final 1D-^195Pt-NMR experiments measured within the regions of 400 and −2800 ppm (Figures S64–S75). The approximate time points for 1–6 at which an estimated 50 and 100% reduction had occurred, in the presence of AsA, as represented by T50% and T100%, are summarised in Table 8.
A sequence of 1H-NMR experiments was carried out for 1 h at 37 °C, followed by 1D-195Pt-NMR within the regions of –2800 and 400 ppm. An amount of 10 mM PBS (~7.4 pH) was transferred to a vial and reduced to dryness through rotary evaporation. AsA (~1 mg) was combined with the metal complex (~5 mg) and transferred to the vial containing the dried PBS. 600 μL of D2O was then added to the vial to dissolve the complex, AsA and the PBS together. Each reaction was followed at 37 °C until the complete reduction […]
The cell lines tested were: HT29 colon, U87 glioblastoma, MCF-7 breast, A2780 ovarian, H460 lung, A431 skin, Du145 prostate, BE2-C neuroblastoma, SJ-G2 glioblastoma, MIA pancreas, ADDP ovarian variant, and the non-tumour derived MCF10A breast line. In […]
agents were prepared in DMSO (30 mM stock solutions) and stored at −20 °C until use.
All cell lines were cultured in a humidified atmosphere 5% carbon dioxide at 37 °C. The cancer cell lines were maintained in Dulbecco’s modified Eagle’s medium (DMEM) (Trace Biosciences, Sydney, NSW, Australia) supplemented with 10% foetal bovine serum, 10 mM sodium bicarbonate penicillin (100 IU mL−1), streptomycin (100 μg mL−1) and glutamine (4 mM). The non-cancer MCF10A cell line was cultured in DMEM:F12 (1:1) cell culture media, 5% heat inactivated horse serum, supplemented with penicillin (50 IU mL−1), streptomycin (50 μg mL−1), 20 mM 4-(2-hydroxyethyl)-1-piperazineethanesulfonic acid (HEPES), L-glutamine (2 mM), epidermal growth factor (20 ng mL−1), hydrocortisone (500 ng mL−1), cholera toxin (100 ng mL−1) and insulin (10 μg mL−1). Cytotoxicity was determined by plating cells in duplicate in […] medium at a density of 2500 – 4000 cells per well in 96 well plates. On day 0 (24 h after plating) when the cells were in logarithmic growth, 100 μL of medium with or without the test agent

H460 lung = test: MTT growth inhibition, 72 h, H460; assay type: cell-based; details: for GI50: H460, MTT, 72 h
MIA pancreas = test: MTT growth inhibition, 72 h, MIA; assay type: cell-based
U87 glioblastoma = test: MTT growth inhibition, 72 h, U87; assay type: cell-based
SJG2 glioblastoma = test: MTT growth inhibition, 72 h, SJG2; assay type: cell-based

COc1ccc2c(c1)c(CC(=O)OCC(=O)[O][Pt-2]13([OH])([NH2+][C@H]4CCCC[C@@H]4[NH2+]1)[n+]1cccc4c(C)c(C)c5ccc[n+]3c5c41)c(C)n2C(=O)c1ccc(Cl)cc1 [Complex 6, [Pt^IV(5,6-Me2phen)(SS-DACH)(ACE)(OH)]^2+]
GI50 (MCF7 breast): 12 ± 6 nM | GI50 (A431 skin): 16 ± 12 nM | GI50 (multiple cell lines): 32 ± 7 nM | GI50 [1]: 3.4 ± 1 nM | GI50 (A2780 ovarian): 10 ± 4 nM | Selectivity Cytotoxicity Index (SCI) (MCF10A / Du145): 15.5 | ROS Production (HT29 colon cells; HT29, 24 h): 344 ± 17 RFU | ROS Production (HT29 colon cells; HT29, 48 h): 312 ± 13 RFU | ROS Production (HT29 colon cells; HT29, 72 h): 202 RFU and 202 ± 10 RFU | GI50 [2]: 1.3 ± 0.5 nM | GI50 (HT29 colon): 4.7 ± 4 nM | Reduction Times T100% [3]: 5 min | fold more potent than the platinum(IV) scaffold (H460 lung): ~12 fold | GI50 (H460 lung): 16 ± 2 nM | GI50 (MIA pancreas): 7.8 ± 4 nM | GI50 (U87 glioblastoma): 28 ± 3 nM | GI50 (SJG2 glioblastoma): 130 ± 25 nM

COc1ccc2c(c1)c(CC(=O)OCC(=O)[O][Pt-2]13([OH])([NH2+][C@H]4CCCC[C@@H]4[NH2+]1)[n+]1cccc4cc(C)c5ccc[n+]3c5c41)c(C)n2C(=O)c1ccc(Cl)cc1 [Complex 5, [Pt^IV(5-Mephen)(SS-DACH)(ACE)(OH)]^2+]
GI50 (MCF7 breast): 39 ± 18 nM | GI50 (A431 skin): 60 ± 45 nM | GI50 (multiple cell lines): 70 ± 15 nM | GI50 [1]: 20 ± 5 nM | GI50 (A2780 ovarian): 30 ± 12 nM | Selectivity Cytotoxicity Index (SCI) (MCF10A / Du145): 15.4 | ROS Production (HT29 colon cells; HT29, 24 h): 313 ± 11 RFU | ROS Production (HT29 colon cells; HT29, 48 h): 305 ± 10 RFU | ROS Production (HT29 colon cells; HT29, 72 h): 192 RFU and 192 ± 7 RFU | fold more potent than cisplatin [2]: 3000 fold | GI50 [2]: 9.3 ± 2 nM | GI50 (HT29 colon): 13 ± 8 nM | Reduction Times T100% [3]: 10 to 15 min | GI50 (H460 lung): 43 ± 8 nM | GI50 (MIA pancreas): 29 ± 14 nM | GI50 (U87 glioblastoma): 140 ± 8 nM | GI50 (SJG2 glioblastoma): 200 ± 21 nM
